# Assay results published in patent US20250011318A1 (ARCUS BIOSCIENCES, INC., priority 2023, published 2025).
# Key:
# [1] = target: T1, Cbl-b (Homo sapiens, UniProt Q13191); assay: Cbl-b probe displacement HTRF binding assay; details: 0.4 nM biotinylated Cbl-b, 150 nM BODIPY probe
# T1 construct: biotin (biotinylated)
# Summary of the method: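 Probe-displacement HTRF in Hepes/NaCl/Triton/TCEP/BSA buffer at room temperature: compound dilutions (to 10 μM) incubated 60 min with 0.4 nM biotin-Cbl-b, 150 nM BODIPY probe added for 15 min, Tb-streptavidin read. Signal normalised to DMSO and no-protein controls; IC50 from four-parameter curve.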
# [2] = system: Jurkat cells; assay: IL-2 secretion assay in CD3/CD28-activated Jurkat cells (AlphaLISA); assay type: cell-based, human; details: Homo sapiens, CD3/CD28 T Cell Activator, 24 h, IL-2 AlphaLISA
# Summary of the method: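 IL-2 release quantified by AlphaLISA in supernatants after 24 h CD3/CD28 activation at 37° C. Compounds, 10 μM to 300 pM final in 1:2 steps, were added to 50,000 Jurkat cells/well 1 h before activation; 4-parameter fit gave EC50.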
# T1 sequence (Q13191 whole entry, species assumed): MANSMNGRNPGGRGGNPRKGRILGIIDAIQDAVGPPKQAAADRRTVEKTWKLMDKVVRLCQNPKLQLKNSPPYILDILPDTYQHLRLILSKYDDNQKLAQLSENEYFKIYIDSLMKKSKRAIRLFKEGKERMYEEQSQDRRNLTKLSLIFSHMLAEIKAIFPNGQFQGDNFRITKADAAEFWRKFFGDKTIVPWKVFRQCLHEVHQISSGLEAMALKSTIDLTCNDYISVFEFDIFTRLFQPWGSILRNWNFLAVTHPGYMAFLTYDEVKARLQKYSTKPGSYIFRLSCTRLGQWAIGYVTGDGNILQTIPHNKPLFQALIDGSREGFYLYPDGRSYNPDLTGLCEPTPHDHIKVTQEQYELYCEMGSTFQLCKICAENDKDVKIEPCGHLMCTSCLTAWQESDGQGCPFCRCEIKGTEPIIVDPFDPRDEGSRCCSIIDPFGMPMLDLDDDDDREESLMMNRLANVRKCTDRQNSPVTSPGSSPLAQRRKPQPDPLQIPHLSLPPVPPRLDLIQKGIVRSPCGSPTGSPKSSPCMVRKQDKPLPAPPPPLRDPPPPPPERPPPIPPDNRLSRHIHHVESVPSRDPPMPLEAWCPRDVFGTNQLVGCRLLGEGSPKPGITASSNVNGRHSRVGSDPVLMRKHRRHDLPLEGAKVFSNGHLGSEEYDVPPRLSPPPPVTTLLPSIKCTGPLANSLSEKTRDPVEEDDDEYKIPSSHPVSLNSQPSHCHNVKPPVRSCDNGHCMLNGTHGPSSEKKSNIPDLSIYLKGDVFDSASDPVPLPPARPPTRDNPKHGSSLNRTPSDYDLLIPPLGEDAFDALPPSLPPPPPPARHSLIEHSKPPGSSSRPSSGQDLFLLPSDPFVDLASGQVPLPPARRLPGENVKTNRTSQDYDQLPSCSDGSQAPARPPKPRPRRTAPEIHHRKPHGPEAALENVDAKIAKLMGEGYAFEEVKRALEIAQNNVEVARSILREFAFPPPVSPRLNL
Structure (SMILES),IC50 [1],EC50 [2]
"Cn1ccnc1-c1cc(F)ccc1-c1cc(C2CC2)nc(-n2cc(C3CC3)c3cc(CN4C[C@@H]5CC[C@H]4C5)[nH]c3c2=O)c1 [Example 56, 2-({(1S,4R)-2-azabicyclo[2.2.1]hept-2-yl}methyl)-4-cyclopropyl-6-{6-cyclopropyl-4-[4-fluoro-2-(1-methyl-2-imidazolyl)phenyl]-2-pyridyl}-1,6-dihydro-1,6-diaza-7-indenone]",< 0.1 µM,0.1 to 1 µM
"Cn1ccnc1-c1cc(F)ccc1-c1cc(C2CC2)nc(-n2cc(C3CC3)c3cc(CN[C@@H]4CCCOC4)[nH]c3c2=O)c1 [Example 57, 2-{[(R)-tetrahydro-2H-pyran-3-ylamino]methyl}-4-cyclopropyl-6-{6-cyclopropyl-4-[4-fluoro-2-(1-methyl-2-imidazolyl)phenyl]-2-pyridyl}-1,6-dihydro-1,6-diaza-7-indenone]",< 0.1 µM,< 0.1 µM
"Cn1ccnc1-c1cc(F)ccc1-c1cc(C2CC2)nc(-n2cc(C3CC3)c3cc(CN4CCC[C@H](O)C4)[nH]c3c2=O)c1 [Example 58, 2-{[(S)-3-hydroxy-1-piperidyl]methyl}-4-cyclopropyl-6-{6-cyclopropyl-4-[4-fluoro-2-(1-methyl-2-imidazolyl)phenyl]-2-pyridyl}-1,6-dihydro-1,6-diaza-7-indenone]",< 0.1 µM,< 0.1 µM
"Cn1ccnc1-c1cc(F)ccc1-c1cc(C2CC2)nc(-n2cc(C3CC3)c3cc(CN[C@H]4CCOC4)[nH]c3c2=O)c1 [Example 59, 2-{[(S)-tetrahydro-3-furylamino]methyl}-4-cyclopropyl-6-{6-cyclopropyl-4-[4-fluoro-2-(1-methyl-2-imidazolyl)phenyl]-2-pyridyl}-1,6-dihydro-1,6-diaza-7-indenone]",< 0.1 µM,< 0.1 µM
"Cn1ccnc1-c1cc(F)ccc1-c1cc(C2CC2)nc(-n2cc(C3CC3)c3cc(CN4C[C@H]5C[C@@H]4CO5)[nH]c3c2=O)c1 [Example 60, 2-({(1R,4R)-2-oxa-5-azabicyclo[2.2.1]hept-5-yl}methyl)-4-cyclopropyl-6-{6-cyclopropyl-4-[4-fluoro-2-(1-methyl-2-imidazolyl)phenyl]-2-pyridyl}-1,6-dihydro-1,6-diaza-7-indenone]",< 0.1 µM,0.1 to 1 µM
"CO[C@H]1CCCN(Cc2cc3c(C4CC4)cn(-c4cc(-c5ccc(F)cc5-c5nccn5C)cc(C5CC5)n4)c(=O)c3[nH]2)C1 [Example 61, 2-{[(S)-3-methoxy-1-piperidyl]methyl}-4-cyclopropyl-6-{6-cyclopropyl-4-[4-fluoro-2-(1-methyl-2-imidazolyl)phenyl]-2-pyridyl}-1,6-dihydro-1,6-diaza-7-indenone]",< 0.1 µM,0.1 to 1 µM
"Cn1ccnc1-c1cc(F)ccc1-c1cc(C2CC2)nc(-n2cc(C3CC3)c3cc(CNC(C)(C)C)[nH]c3c2=O)c1 [Example 62, 2-[(tert-butylamino)methyl]-4-cyclopropyl-6-{6-cyclopropyl-4-[4-fluoro-2-(1-methyl-2-imidazolyl)phenyl]-2-pyridyl}-1,6-dihydro-1,6-diaza-7-indenone]",< 0.1 µM,< 0.1 µM
"C[C@@H]1CN(Cc2cc3c(C4CC4)cn(-c4cc(-c5ccc(F)cc5-c5nccn5C)cc(C#N)n4)c(=O)c3[nH]2)CCO1 [Example 63, 6-(2-{[(R)-2-methyl-4-morpholinyl]methyl}-4-cyclopropyl-7-oxo-1,6-dihydro-1,6-diaza-6-indenyl)-4-[4-fluoro-2-(1-methyl-2-imidazolyl)phenyl]-2-pyridinecarbonitrile]",< 0.1 µM,0.1 to 1 µM
"CCn1ccnc1-c1cc(F)ccc1-c1cc(C2CC2)nc(-n2cc(C3CC3)c3cc(CN4CCO[C@H](C)C4)[nH]c3c2=O)c1 [Example 64, 2-{[(R)-2-methyl-4-morpholinyl]methyl}-4-cyclopropyl-6-{6-cyclopropyl-4-[2-(1-ethyl-2-imidazolyl)-4-fluorophenyl]-2-pyridyl}-1,6-dihydro-1,6-diaza-7-indenone]",< 0.1 µM,0.1 to 1 µM
"C[C@@H]1CN(Cc2cc3c(C4CC4)cn(-c4cc(-c5c(F)cc(F)cc5-c5nccn5C)cc(C5CC5)n4)c(=O)c3[nH]2)CCO1 [Example 65, 2-{[(R)-2-methyl-4-morpholinyl]methyl}-4-cyclopropyl-6-{6-cyclopropyl-4-[4,6-difluoro-2-(1-methyl-2-imidazolyl)phenyl]-2-pyridyl}-1,6-dihydro-1,6-diaza-7-indenone]",< 0.1 µM,< 0.1 µM
"C[C@@H]1CN(Cc2cc3c(C4CC4)cn(-c4cc(-c5cc(F)c(F)cc5-c5nccn5C)cc(C5CC5)n4)c(=O)c3[nH]2)CCO1 [Example 66, 2-{[(R)-2-methyl-4-morpholinyl]methyl}-4-cyclopropyl-6-{6-cyclopropyl-4-[4,5-difluoro-2-(1-methyl-2-imidazolyl)phenyl]-2-pyridyl}-1,6-dihydro-1,6-diaza-7-indenone]",< 0.1 µM,0.1 to 1 µM
"Cn1cc(C(F)(F)F)nc1-c1cc(C#N)ccc1-c1cc(C2CC2)nc(-n2cc(C3CC3)c3cc(CNC4(C)CCC4)[nH]c3c2=O)c1 [Example 67, 4-(6-cyclopropyl-2-{4-cyclopropyl-2-[(1-methylcyclobutylamino)methyl]-7-oxo-1,6-dihydro-1,6-diaza-6-indenyl}-4-pyridyl)-3-[1-methyl-4-(trifluoromethyl)-2-imidazolyl]benzonitrile]",< 0.1 µM,0.1 to 1 µM
"CC1(NCc2cc3c(C4CC4)cn(-c4cc(-c5ccc(C#N)cc5-c5nncn5C(F)F)cc(C5CC5)n4)c(=O)c3[nH]2)CCC1 [Example 68, 4-(6-cyclopropyl-2-{4-cyclopropyl-2-[(1-methylcyclobutylamino)methyl]-7-oxo-1,6-dihydro-1,6-diaza-6-indenyl}-4-pyridyl)-3-[4-(difluoromethyl)-4H-1,2,4-triazol-3-yl]benzonitrile]",< 0.1 µM,< 0.1 µM

# Results, then the molecule that gave them:
IC50 [1],EC50 [2],Structure (SMILES)
< 0.1 µM,< 0.1 µM,"Cn1cc(C#N)nc1-c1cc(F)ccc1-c1cc(C2CC2)nc(-n2cc(C(F)(F)F)c3nc([C@@H]4CCOC4)[nH]c3c2=O)c1 [Example 47, 2-[2-(2-{2-[(S)-Tetrahydro-3-furyl]-4-oxo-7-(trifluoromethyl)-3,5-dihydro-1,3,5-triaza-5-indenyl}-6-cyclopropyl-4-pyridyl)-5-fluorophenyl]-1-methyl-4-imidazolecarbonitrile]"
< 0.1 µM,< 0.1 µM,"Cn1cc(C#N)nc1-c1cc(F)ccc1-c1cc(C2CC2)nc(-n2cc(C(F)(F)F)c3nc([C@H]4CCOC4)[nH]c3c2=O)c1 [Example 48, 2-[2-(2-{2-[(R)-Tetrahydro-3-furyl]-4-oxo-7-(trifluoromethyl)-3,5-dihydro-1,3,5-triaza-5-indenyl}-6-cyclopropyl-4-pyridyl)-5-fluorophenyl]-1-methyl-4-imidazolecarbonitrile]"
< 0.1 µM,< 0.1 µM,"C[C@H]1CCCN(Cc2nc3c(C(F)(F)F)cn(-c4cc(-c5ccc(F)cc5-c5nncn5C)cc(C5CC5)n4)c(=O)c3[nH]2)C1 [Example 50, 5-[6-cyclopropyl-4-[4-fluoro-2-(4-methyl-1,2,4-triazol-3-yl)phenyl]pyridin-2-yl]-2-[[(3S)-3-methylpiperidin-1-yl]methyl]-7-(trifluoromethyl)-3H-imidazo[4,5-c]pyridin-4-one]"
< 0.1 µM,< 0.1 µM,"C[C@H]1CCCN(Cc2nc3c(C4CC4)cn(-c4cc(-c5ccc(F)cc5-c5nccn5C)cc(C5CC5)n4)c(=O)c3[nH]2)C1 [Example 51, 7-cyclopropyl-5-[6-cyclopropyl-4-[4-fluoro-2-(1-methylimidazol-2-yl)phenyl]pyridin-2-yl]-2-[[(3S)-3-methylpiperidin-1-yl]methyl]-3H-imidazo[4,5-c]pyridin-4-one]"
< 0.1 µM,< 0.1 µM,"C[C@H]1CCCN(Cc2cc3c(C4CC4)cn(-c4cc(-c5ccc(F)cc5-c5nccn5C)cc(C5CC5)n4)c(=O)c3[nH]2)C1 [Example 52, 2-{[(S)-3-methyl-1-piperidyl]methyl}-4-cyclopropyl-6-{6-cyclopropyl-4-[4-fluoro-2-(1-methyl-2-imidazolyl)phenyl]-2-pyridyl}-1,6-dihydro-1,6-diaza-7-indenone]"
< 0.1 µM,< 0.1 µM,"Cn1ccnc1-c1cc(F)ccc1-c1cc(C2CC2)nc(-n2cc(C3CC3)c3cc(CNC4(CO)CCC4)[nH]c3c2=O)c1 [Example 53, 4-cyclopropyl-6-{6-cyclopropyl-4-[4-fluoro-2-(1-methyl-2-imidazolyl)phenyl]-2-pyridyl}-2-{[1-(hydroxymethyl)cyclobutylamino]methyl}-1,6-dihydro-1,6-diaza-7-indenone]"
< 0.1 µM,< 0.1 µM,"C[C@@H]1CN(Cc2cc3c(C4CC4)cn(-c4cc(-c5ccc(F)cc5-c5nccn5C)cc(C5CC5)n4)c(=O)c3[nH]2)CCO1 [Example 54, 2-{[(R)-2-methyl-4-morpholinyl]methyl}-4-cyclopropyl-6-{6-cyclopropyl-4-[4-fluoro-2-(1-methyl-2-imidazolyl)phenyl]-2-pyridyl}-1,6-dihydro-1,6-diaza-7-indenone]"
< 0.1 µM,< 0.1 µM,"Cn1ccnc1-c1cc(F)ccc1-c1cc(C2CC2)nc(-n2cc(C3CC3)c3cc(CNC4(C)CCC4)[nH]c3c2=O)c1 [Example 55, 4-cyclopropyl-6-{6-cyclopropyl-4-[4-fluoro-2-(1-methyl-2-imidazolyl)phenyl]-2-pyridyl}-2-[(1-methylcyclobutylamino)methyl]-1,6-dihydro-1,6-diaza-7-indenone]"
